We go through 21 molecules from PMC8769072, “Proteome‐scale mapping of binding sites in the unstructured regions of the human proteome” (Molecular Systems Biology, 2022).

The target in assay [1] is T1, CLTC (Homo sapiens, UniProt Q00610).
T1 construct: Q00610; CLTC; Clathrin propeller; 364; pETM33; Genescript; 6-His-GST; made in house; host or cells: Escherichia coli BL21(DE3) gold (stated for the bait preparation)
T1 sequence (Q00610 1-364): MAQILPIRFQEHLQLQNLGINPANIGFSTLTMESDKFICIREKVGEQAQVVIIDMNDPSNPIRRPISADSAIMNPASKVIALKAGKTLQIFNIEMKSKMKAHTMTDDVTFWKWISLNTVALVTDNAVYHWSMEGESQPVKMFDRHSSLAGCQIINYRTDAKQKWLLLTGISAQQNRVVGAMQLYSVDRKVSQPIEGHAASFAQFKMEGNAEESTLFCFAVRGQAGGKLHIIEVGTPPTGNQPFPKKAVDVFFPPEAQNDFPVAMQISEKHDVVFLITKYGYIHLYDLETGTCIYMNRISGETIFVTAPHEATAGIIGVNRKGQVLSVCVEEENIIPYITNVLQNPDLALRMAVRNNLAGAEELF
Description: FP competition, CLTC. In kind it is binding. The following applies: competitive FP assay.

In assay [2] the target is T2, KPNB1 HEAT (Homo sapiens, UniProt Q14974).
T2 construct: Q14974; KPNB1; HEAT; 485; pETM41; Genescript; 6-His-MBP (from vector pETM41) (cleaved yes); made in house; host or cells: bacteria (E. coli BL21(DE3) gold is named only for the phage-selection preparations)
Description: FP competition, KPNB1 HEAT. The class given is binding. The following applies: for Ki: FP competition with FITC-NUP153 probe, low-affinity value.

Assay [3] has as its target T3, KPNA4 ARM (Homo sapiens, UniProt O00629).
T3 construct: O00629; KPNA4; Arm; 68; 487; pETM33/pETM41; Genescript; made in house; host or cells: bacteria (E. coli BL21(DE3) gold is named only for the phage-selection preparations)
Description: FP saturation (direct binding of FITC probes), KPNA4 ARM.

Assay [4] deals with T2, KPNB1 HEAT. Description: FP saturation (direct binding of FITC probe), KPNB1 HEAT. The following applies: direct binding of FITC-labeled probe, 10 nM in master mix, 50 mM KPO4 pH 7.5.
Assay [5] addresses T4, TLN1 PTB (Homo sapiens, UniProt Q9Y490).
T4 construct: Q9Y490; TLN1; PTB; 309; pHH0103; Sidhu Lab (PMID: 33438817); made in house; host or cells: bacteria (E. coli BL21(DE3) gold is named only for the phage-selection preparations)
Description: FP saturation (direct binding of FITC probe), TLN1 PTB. The following applies: Fig 3C; direct binding of FITC-labeled probe.

Assay [6] addresses T4, TLN1 PTB. Description: FP competition, TLN1 PTB. In kind it is binding. Conditions: for Ki: FP competition with FITC-PIP5K1C probe.
Assay [7] concerns the target T5, SFN 14-3-3 (Homo sapiens, UniProt P31947).
T5 sequence (P31947 1-236): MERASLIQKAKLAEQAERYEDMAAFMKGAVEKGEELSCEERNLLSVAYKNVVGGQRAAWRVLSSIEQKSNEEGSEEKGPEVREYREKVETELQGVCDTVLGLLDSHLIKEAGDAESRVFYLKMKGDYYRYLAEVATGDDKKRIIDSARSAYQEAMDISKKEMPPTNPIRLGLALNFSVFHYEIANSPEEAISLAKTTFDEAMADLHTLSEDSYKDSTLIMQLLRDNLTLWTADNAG
Description: FP competition, SFN 14-3-3.

Assay [8] concerns HEK293 cells. Description: GFP-based NLS sensor (tri-GFP) cellular localization. In kind it is cell-based, human. The following applies: HEK293 cells transiently transfected, fixed 36 h after transfection, epifluorescence microscopy, DAPI; n = 3 independent experiments. An excerpt: For the cell‐based NLS experiment, a pEGFP‐C1 vector was modified to contain two additional eGFP genes spaced by a linker region on the 3′ end of the vector's multiple cloning site (Appendix Fig S8). The modified vector is here called a “tri‐GFP vector”. DNA strands for tandem peptides to be tested for NLS function were constructed by PCR using overlapping primers that coded for the peptide sequences and also contained overlapping regions for the MCS in the tri‐GFP vector. The PCR products were then cloned into the tri‐GFP vector using Gibson Assembly® (New England Biolabs) following the manufacturer's recommendations. Obtained clones were verified by Sanger sequencing.
HEK293 cells were obtained from Sigma (Cat. 85120602) and cultured using DMEM with GlutaMAX™ Supplement (Gibco™) supplemented with 10% FBS (Gibco™) and Non‐Essential Amino Acids Solution (NEAA, Gibco™). Cultures were maintained at 37°C with 5% CO2 in humidified chambers and were routinely checked for mycoplasma contamination. For NLS experiments, cells were transfected using FuGENE® HD (Promega) according to manufacturer's instructions and using highly purified DNA samples. • Cells were then grown in eight‐well chamber slides. […]

The target in assay [9] is T3, KPNA4 ARM. Description: FP competition, KPNA4 ARM major pocket (FITC-Myc probe). The class given is binding. An excerpt: Like other importins, KPNA4 has two distinct NLS‐binding pockets on the surface of an armadillo (ARM) repeat fold (major pocket, ARM 2–4; minor pocket, ARM 6–8; Fig 5B) (Smith et al, [2018]). Bipartite NLSs are usually 17–19 amino acids long and engage both pockets. Monopartite NLSs are short basic stretches, divided into five classes (Kosugi et al, [2009]): class I KR[KR]R or K[KR]RK, class II [PR]xxKR[^DE][KR] (where ^ indicates “not”), class III KRx[WFY]xxAF, class IV [RP]xxKR[KR][^DE], and class V LGKR[KR][WFY]. The class I and class II motifs preferentially interact with the major pocket (Kosugi et al, [2009]). In contrast, class III and class IV NLSs preferentially bind to the minor pocket. Using KPNA4 as a bait against the HD2 P8 library we identified 33 peptides found in 32 proteins. Of the 26 proteins for which information was available, 22 proteins were annotated as having nuclear or nucleolar localization in the UniProt database. To gain additional information we combined the data generated for KPNA4 by screening against the complete P8 HD2 library, with the results generated using two relevant sublibraries (the cytoplasmic and nuclear, and nuclear sublibraries) resulting in a set of 92 peptides containing NLS‐like sequences found in 76 proteins. Using these peptides we could generate consensus motifs that matched four of the previously reported NLS classes (Fig 5A; class I‐IV). […] Three peptides bound only to the major pocket. Eight peptides with class III motif and one KRxH‐containing peptide only bound to the minor pocket. Five peptides outcompeted both probe peptides, which may be explained by the amino acid sequence matching both class II and class III motifs (e.g., 1135‐ PSPKRKL ‐1139 in ZNF532; Fig 5), and possibly by cross specificity of the two binding pockets.

In assay [10] the target is T6, MDM2 SWIB (Homo sapiens, UniProt Q00987).
T6 construct: Q00987; MDM2; SWIB; 17; 125; pETM33; Genescript; His-GST (cleaved yes); made in house; host or cells: bacteria (E. coli BL21(DE3) gold is named only for the phage-selection preparations)
Description: FP competition, MDM2 SWIB. The class given is binding.

Where a SMILES comes first, the peptide text is derived from it. Where no end group is shown, it is not given here. [ ]: non-standard residue; d: D form. The star is where a group is joined. FITC = O=C1OC2(c3ccc(O)cc3Oc3cc(O)ccc32)c2ccc(NC(=S)*)cc21; pT = C[C@@H](OP(=O)(O)O)[C@H](N)C(=O)O

For the molecule `CC[C@H](C)[C@H](NC(=O)[C@H](CC(C)C)NC(=O)[C@@H]1CCCN1C(=O)[C@H](CC(C)C)NC(=O)[C@H](CC(=O)O)NC(=O)[C@@H](NC(=O)[C@H](CC(C)C)NC(C)=O)[C@@H](C)CC)C(=O)N[C@@H](CC(=O)O)C(=O)N[C@@H](Cc1ccccc1)C(=O)N[C@@H](CS)C(=O)N[C@@H](CC(=O)O)C(=O)N[C@H](C(=O)N1CCC[C@H]1C(=O)N[C@@H](CCC(=O)O)C(=O)N[C@@H](C)C(=O)N[C@@H](Cc1c[nH]cn1)C(=O)N[C@@H](Cc1ccc(O)cc1)C(=O)O)[C@@H](C)OP(=O)(O)O` [GTSE1 pT] (Ac-LIDLPLIDFCD[pT]PEAHY-OH), the IC50 in assay [1] worked out at 87 µM.
In [2], `CC(=O)NCC(=O)N[C@@H](Cc1ccc(O)cc1)C(=O)N[C@H](C(=O)N[C@@H](Cc1ccccc1)C(=O)N[C@@H](CCC(N)=O)C(=O)N[C@H](C(=O)N[C@@H](CCC(N)=O)C(=O)N[C@@H](CC(=O)O)C(=O)NCC(=O)N[C@@H](C)C(=O)N1CCC[C@H]1C(=O)NCC(=O)N[C@H](C(=O)N[C@@H](Cc1ccccc1)C(=O)N[C@@H](CC(N)=O)C(=O)N[C@@H](Cc1ccccc1)C(=O)O)[C@@H](C)O)C(C)C)[C@@H](C)O` [KPNA2_514–529] displayed a Ki of 1 mM.
`CC[C@H](C)[C@H](NC(=O)[C@H](C)NC(=O)[C@H](CCCNC(=N)N)NC(=O)CNC(=O)[C@@H](NC(=O)[C@H](CCCNC(=N)N)NC(=O)CNC(=O)[C@H](CCC(=O)O)NC(=O)[C@H](CCSC)NC(=O)[C@H](CCSC)NC(=O)[C@H](CC(=O)O)NC(=O)[C@H](Cc1ccc(O)cc1)NC(=O)[C@@H](NC(=O)[C@H](CCCNC(=N)N)NC(=O)[C@H](CCCCN)NC(=O)[C@@H]1CCCN1C(=S)Nc1ccc2c(c1)C(=O)OC21c2ccc(O)cc2Oc2cc(O)ccc21)[C@@H](C)O)C(C)C)C(=O)O` [NCOR2 FITC] ({FITC}-PKRTYDMMEGRVGRAI-OH) returned a Kd in assay [3] (Appendix Fig S7, saturation curves of FITC-labeled probes with KPNA4 ARM) of 228 ± 11 nM.
With `CC(C)[C@H](NC(=O)[C@H](Cc1ccccc1)NC(=O)[C@@H](NC(=O)[C@H](C)NC(=O)[C@@H](NC(=S)Nc1ccc2c(c1)C(=O)OC21c2ccc(O)cc2Oc2cc(O)ccc21)C(C)C)[C@@H](C)O)C(=O)N[C@@H](Cc1ccccc1)C(=O)NCC(=O)N[C@@H](CCC(N)=O)C(=O)N[C@@H](CO)C(=O)N[C@@H](CO)C(N)=O` [NUP153_FITC] ({FITC}-VATFVFGQSS-NH2), in [4], the Kd was 106 µM.
For `CC(C)C[C@H](NC(=O)[C@@H]1CCCN1C(=O)[C@H](CO)NC(=O)[C@H](Cc1ccc(O)cc1)NC(=O)[C@@H](NC(=O)[C@H](Cc1c[nH]c2ccccc12)NC(=O)[C@H](CO)NC(=O)[C@H](CCCNC(=N)N)NC(=O)[C@H](CCC(=O)O)NC(=O)[C@H](CC(=O)O)NC(=O)[C@@H](NC(=O)[C@@H]1CCCN1C(=O)[C@H](Cc1ccccc1)NC(=S)Nc1ccc2c(c1)C(=O)OC21c2ccc(O)cc2Oc2cc(O)ccc21)[C@@H](C)O)C(C)C)C(=O)N[C@@H](Cc1c[nH]cn1)C(=O)N[C@@H](Cc1ccc(O)cc1)C(=O)N[C@@H](CO)C(N)=O` [PIP5K1C_FITC] ({FITC}-FPTDERSWVYSPLHYS-NH2), in assay [5], the Kd turned out to be 150 ± 40 nM.
In [6], AKWDTANNPLYKEATS-NH2 [ITB3] gave an IC50 of 1430 µM and a Ki of 500 µM.
In assay [2], Ac-AYAPPVFVFQKDKGQK-NH2 [RANBP3] returned a half-inhibitory concentration (IC50) of 2.2 mM and a Ki of approximately 1 mM.
Consider Ac-LIDLPLIDFCDTPEAHY [GTSE1], for which the IC50 in [1] was 97 µM.
Ac-NEPTTPSWLADIPPWVP-NH2 [MAP1A] returned an IC50 in [7] of 1.97 mM.
Consider Ac-NPPVATFVFGQSSNPY-NH2 [NUP153], for which the IC50 in assay [2] came to 0.049 mM.
Regarding Ac-YKCKRQRQDQTLELVGL-NH2 [NKX2-5 Wt], the “NLS function: localization of the GFP-based NLS sensor fused to the peptide” value in assay [8] was “nuclear localization”. In [9], the Ki worked out at 6.8 µM.
Take Ac-YKCRRQRQDQTLELVGL-NH2 [NKX2-5 K194R]: the “NLS function: localization of the GFP-based NLS sensor fused to the peptide” value in [8] is given as “cytoplasmic localization”. The molecule also showed an IC50 in assay [9] (FP competition with FITC-Myc320-328 probe for the major pocket, 50 mM KPO4 pH 7.5, n = 3 technical replicates) of 98 µM. Further, the “loss of affinity of KPNA4 binding, mutant versus wild-type” value in assay [9] (FP competition with FITC-Myc probe, K194R versus wild-type) was 10 fold.
Ac-YVSGNLIDLCGNQGLP [MITF Y265C] registered an IC50 in assay [1] of 220 µM.
Same read-out and setting: with Ac-YVSGNLIDLYGNQGLP [MITF] the figure was 150 µM.
The molecule DLIFTDSKLYIPLE-NH2 [TPTE] returned an IC50 in assay [6] of 15 µM.
FPTDERSWVYSPLHYS-NH2 [PIP5K1C] had an IC50 in assay [6] of 0.42 µM. For the same molecule, the affinity in assay [6] (Fig 3C, triplicates) corresponds to a Ki of 0.066 µM.
As to GFEAQWAALENKSKQR [NUMB], the IC50 in [10] was 130 µM.
Molecule THFAELWGHLDHTMFF [RNF115] gave an IC50 in assay [10] of 9 µM. Moreover, the affinity in assay [10] (Fig 3C, FP competition with FITC-p53 probe, triplicates), expressed as Ki, was 174 nM.
As for TPEDDRSFQTVWATVF [KIAA1671], in assay [10], the IC50 is 73 µM.
VGPLTPLWTYPATAAG-NH2 [NYAP1] displayed an IC50 in assay [6] of 62 µM.
In turn, “{FITC}-PAAKRVKLD [Myc, FITC-labeled Myc 320-328 probe for the KPNA4 major pocket]” came in with a Kd in assay [3] (direct binding of FITC-labeled probe, saturation with KPNA4 ARM) of 30 nM.
